Patent US5536645A, “Nutritive medium for the culture of microorganism” (priority 1993, dated 1996)
Read-outs that look alike come from different tables or passages of the source. Ends that are not written are not given here.

Columns and labels:
Assay type in all cases: cell-based
[1] = test system: enterococci; experiment: Effect of medium constituents and peptides on growth of enterococci; conditions: for base requirements of the enterococci: supplied as precursors; for growth: addition of peptides to the medium
From the text: It is moreover known to affect the activity of the sulfamides and trimethoprim family (Then R. et al., Mecanisme moleculaire de la bactericidie; sulfamides et trimethoprime [Molecular mechanism of bactericidal activity; sulfamides and trimethoprim]. Bactericidie 1990, Editions Maloine, Paris).
The purine and pyrimidine bases can be supplied in several forms, that is to say in the form of precursors, of free bases, of nucleosides or of nucleotides. […] The proportions between purines and pyrimidines were defined in relation to those described for the synthesis of RNA by Neidhart (Neidhart et al. (1990) Physiology of the bacterial cell. A molecular approach. Sinauer associates, inc. U.S.A.), taking account of the absence of thymidine, that is to say purines/pyrimidines in a ratio of between 1.5 and 2.2 and advantageously of 1.8. The final concentrations were then optimized essentially to satisfy the growth of the staphylococci and of the enterococci.

[2] = test system: Pseudomonas aeruginosa; experiment: Effect of L-malic acid on growth (FIG. 11); conditions: 500 mg/l in FIG. 11
Description: FIGS. 11 illustrates the effect of L-malic acid on the growth of Pseudomonas aeruginosa, curve a corresponding to the growth obtained with an IST medium devoid of L-malic acid and curve b after addition of a concentration of 500 mg/l of L-malic acid.
(§1) The carbon sources of the medium of the invention are mainly represented by a sugar, preferably D-glucose, and an organic acid, in particular L-malic acid. D-glucose has been retained, taking account of its utilization by a large number of bacterial species with fermentative or non-fermentative metabolism (Stanier R. Y. et al. (1966) The aerobic Pseudomonas: a taxonomic study. J. Gen. Microbiol. 43: 159-271). Its concentration in the medium of the invention was determined to obtain a biomass close to that obtained with the reference Mueller-Hinton medium. […] The respective concentrations of D-glucose and L-malic acid were determined to correspond to the qualities of Mueller-Hinton.

[3] = test system: non-saccharolytic species, such as Alcaligenes faecalis and Pseudomonas acidovorans; experiment: Effect of L-malic acid on growth (FIG. 10); conditions: 500 mg/l in FIG. 10
Description: as §1

[4] = test system: Proteus, Morganella, Providencia and Serratia; experiment: Effect of polyamines on growth; conditions: preferential concentration 0.75 mg/l
Description: The polyamines are present in the eukaryotic and prokaryotic cells and participate in numerous biological reactions including the synthesis of nucleic acids and of proteins (see Tabor C. W. and Tabor H. (1985) Polyamines in Microorganisms, Microbiol. Rev. 49: 81-99). Putrescine, spermine and spermidine were tested. […] FIG. 7 illustrates the effect of spermidine on the growth of Proteus mirabilis.

[5] = test system: S. marcescens; experiment: Equivalent MIC of antibiotics in VITEK cards, gram-negative bacteria (Table 3); conditions: for MIC: Serratia marcescens, 12 h
Description: (§2) With the determination of the sensitivity to antibiotics in mind, a suspension of 0.5 MF (Mac Farland) in physiological water was prepared from bacterial colonies selected in Petri dishes, reading being carried out on an ATB 1550 densitometer marketed by BIOMERIEUX (ATB trade mark). The suspension obtained was respectively diluted to 1/100th in the medium of the invention and Mueller-Hinton medium. VITEK cards (VITEK trade mark) containing different antibiotics at 10 concentrations were filled in vacuo into a VITEK apparatus marketed by BIOMERIEUX-VITEK. The cards were incubated for 12 hours in a VITEK incubator/reader marketed by BIOMERIEUX-VITEK. The growth kinetics were visualized and interpreted and an equivalent MIC was determined (equivalent MIC: equivalent minimum inhibitory concentration, that is to say the smallest concentration for which no bacterial growth is detected by the apparatus).
(§3) IST refers to the medium of the invention and MH signifies Mueller-Hinton medium.
(§4) S, I and R respectively signify "sensitive", "intermediate" and "resistant" with reference to the critical concentrations defined by the NCCLS (National Committee for Clinical Laboratory Standards).

[6] = test system: P. aeruginosa; experiment: as above; conditions: for MIC: Pseudomonas aeruginosa
Description: as §2, §3, §4

[7] = test system: E. coli; experiment: microbe, parasite or virus in culture; conditions: for MIC: Escherichia coli, 12 h, read-out: Equivalent MIC
Description: as §2, §3, §4

[8] = test system: enterococci and streptococci of group B; experiment: Effect of lipoic acid on growth (FIG. 6); conditions: 0.01 mg/l in FIG. 6
From the text: FIG. 6 illustrates the effect of lipoic acid on the growth of Enterococcus faecalis.

[9] = test system: Serratia marcescens; experiment: Effect of serine concentration on growth (FIG. 1); conditions: serine concentration increased by a factor of 10 in IST medium
From the text: Curve b represents the growth with the IST medium for a concentration of serine increased by a factor of 10. Curve c represents the growth obtained with the Mueller-Hinton medium.
The qualitative and quantitative composition of amino acids was then optimized for the different species in order to obtain growth in conformity with that obtained with the reference Mueller-Hinton medium. […] The final concentrations of amino acids were defined, after having verified their importance on the final biomass, taking account of the biomass obtained in Mueller-Hinton medium.

[10] = test system: Enterococcus hirae and Enterococcus faecium; experiment: Effect of tetrapeptide on growth (FIG. 14); conditions: 50 or 100 mg/l of peptide in FIG. 14
Description: Curve a corresponds to the results obtained with the medium of the invention without addition of the abovementioned peptide, nor addition of constituent free amino acids of this peptide. Curve b illustrates the results obtained with the addition of amino acids Ala, Gly, Ser, GLu respectively at concentrations of 11, 9, 12.5 and 17.5 mg/l. […] Curve d corresponds to the bacterial growth obtained after addition to the medium of 50 mg/l of the peptide. Curve e illustrates the results obtained after addition of 100 mg/l of the same peptide.
Among the peptides tested, only those showing size a less than or equal to 15 amino acids cause a strong increase in the growth.

[11] = test system: staphylococci; experiment: Effect of ethyl oxaloacetate on growth (FIG. 8); conditions: 5 mg/l in FIG. 8
From the text: Ethyl oxaloacetate is described for its stimulatory effect on the growth of numerous species (Pelczar M. J. and Brown J. H. (1951) Synthetic culture media for reference use in dairy bacteriology, J. Milk Food Technol., 14: 90-91 and 97).

## Nc1nc2ncc(CNc3ccc(C(=O)N[C@@H](CCC(=O)O)C(=O)O)cc3)nc2c(=O)[nH]1 [Folic acid, folic acid]
[1]; E. faecalis, E. faecium and E. hirae, 0.005 mg/l in FIG. 5
  importance for the growth of enterococci: importance for the growth of enterococci

## O=C(O)C[C@H](O)C(=O)O [L-malic acid]
[2]
  growth: increases the growth of Pseudomonas aeruginosa
[3]
  growth: necessary for the growth of the non-saccharolytic species

## NCCCCNCCCN [Spermidine, spermidine]
[4]
  growth: chosen according to the results, especially for the growth of Proteus, Morganella, Providencia and Serratia

## CC(C)(O/N=C(\C(=O)N[C@@H]1C(=O)N2C(C(=O)[O-])=C(C[n+]3ccccc3)CS[C@H]12)c1csc(N)n1)C(=O)O [ceftazidim]
[5]; CDC 2102, IST medium
  NCCLS Category: S
[5]; CDC 2102, MH medium
  NCCLS Category: S
[5]; CDC 2162, IST medium
  NCCLS Category: S
[5]; CDC 2162, MH medium
  NCCLS Category: S
[5]; CDC 2240, IST medium
  NCCLS Category: S
[5]; CDC 2240, MH medium
  NCCLS Category: S
[5]; read-out: Equivalent MIC, CDC 2102, IST medium
  MIC: 0.5 µg/mL
[5]; read-out: Equivalent MIC, CDC 2102, MH medium
  MIC: 0.25 µg/mL
[5]; read-out: Equivalent MIC, CDC 2162, IST medium
  MIC: 2 µg/mL
[5]; read-out: Equivalent MIC, CDC 2162, MH medium
  MIC: 2 µg/mL
[5]; read-out: Equivalent MIC, CDC 2240, IST medium
  MIC: 0.5 to 1 µg/mL
[5]; read-out: Equivalent MIC, CDC 2240, MH medium
  MIC: 1 µg/mL
[6]; AP 9, IST medium
  NCCLS Category: R
[6]; AP 9, MH medium
  NCCLS Category: R
[6]; AP 13, IST medium
  NCCLS Category: S
[6]; AP 13, MH medium
  NCCLS Category: S
[6]; ATCC 27853, IST medium
  NCCLS Category: S
[6]; ATCC 27853, MH medium
  NCCLS Category: S
[6]; CDC 2275, IST medium
  NCCLS Category: S
[6]; CDC 2275, MH medium
  NCCLS Category: S
[6]; 12 h, read-out: Equivalent MIC, AP 9, IST medium
  MIC: 32 µg/mL
[6]; 12 h, read-out: Equivalent MIC, AP 9, MH medium
  MIC: 32 µg/mL
[6]; 12 h, read-out: Equivalent MIC, AP 13, IST medium
  MIC: 4 µg/mL
[6]; 12 h, read-out: Equivalent MIC, AP 13, MH medium
  MIC: 4 µg/mL
[6]; 12 h, read-out: Equivalent MIC, CDC 2275, IST medium
  MIC: 4 µg/mL
[6]; 12 h, read-out: Equivalent MIC, CDC 2275, MH medium
  MIC: 4 µg/mL
[6]; ATCC27853, 12 h, read-out: Equivalent MIC, ATCC 27853, IST medium
  MIC: 1 µg/mL
[6]; ATCC27853, 12 h, read-out: Equivalent MIC, ATCC 27853, MH medium
  MIC: 2 µg/mL
[7]; CDC 2008, IST medium
  NCCLS Category: S
  MIC: < 0.06 µg/mL
[7]; CDC 2008, MH medium
  NCCLS Category: S
  MIC: < 0.06 µg/mL
[7]; CDC 2254, IST medium
  NCCLS Category: S
  MIC: 0.5 µg/mL
[7]; CDC 2254, MH medium
  NCCLS Category: S
  MIC: 1 µg/mL

## O=c1[nH]cnc2nc[nH]c12 [hypoxanthine]
[1]
  base requirements of the enterococci: does not satisfy the base requirements of the enterococci

## O=C(O)CCCCC1CCSS1 (stereo not drawn) [lipoic acid]
[8]
  growth: allowing the growth of the enterococci and of the streptococci of group B to be increased to a maximum

## N[C@@H](CO)C(=O)O [serine]
[9]
  bacterial growth: near to that obtained with Mueller-Hinton medium

## O=c1cc[nH]c(=O)[nH]1 [uracil]
[1]
  base requirements of the enterococci: does not satisfy the base requirements of the enterococci

## ASDAKAYDTEV
[1]
  growth: interesting results for other strains of Enterococci

## Ala-Gly-Ser-Glu (AGSE) [Ala-Gly-Ser-Glu (SEQ ID NO: 1)]
[10]
  growth: considerable increase in the growth

## EDRPPLFGQGTV
[1]
  growth: interesting results for other strains of Enterococci

## ethyl oxaloacetate
[11]
  growth: allowing the growth of the staphylococci to be increased without inhibiting that of the other species
